Assay results: patent US20080146599A1, “Pyrimidine Compounds Having Tie-2 (Tek) Inhibitory Activity” (ASTRAZENECA AB, priority 2005, published 2008)
Where two headings read alike, the source gives them in different places.

Legend:
[1] = biological target: T1, Tie2 receptor tyrosine kinase (Homo sapiens, UniProt Q02763); assay: In vitro receptor tyrosine kinase inhibition assay (ELISA based microtitre plate assay); format: biochemical; conditions: recombinant human Tie2 kinase domain lysate, ATP 5 micromolar or Km; read-out: IC50 (μM) Test (a): Inhibition of Tie2 receptor tyrosine kinase in vitro
T1 construct: consist of only the intracellular portion C-terminal portion of the respective receptor, within which is found the kinase domain; made in house; host or cells: baculovirus/Sf21 insect cells (or alternative equivalent); cleared lysate used, not purified protein
Procedure: Constitutive kinase activity of these recombinant proteins was determined by their ability to phosphorylate a synthetic peptide (made up of a random co-polymer of Glutamic Acid, Alanine and Tyrosine in the ratio of 6:3:1). […] Plates were washed in 50 mM HEPES pH 7.4 at room temperature to remove any excess unbound synthetic peptide.
The immobilised phospho-peptide product of the reaction was detected by immunological methods.
Kinase inhibition for a given compound was expressed as an IC50 value. […] The range of phosphorylation was calculated from the positive (vehicle plus ATP) and negative (vehicle minus ATP) control values.

[2] = biological target: T2, Tie2 receptor (Homo sapiens, UniProt Q02763); assay: Cellular Tie2 autophosphorylation assay (Ang1 ligand stimulated); format: cell-based
T2 construct: one can use natural cell lines or primary cells which are known to express the receptor of choice; endogenous in cells; host or cells: EA.hy926/B3 cells

[3] = whole cells, for example EA.hy926/B3, Ang1 ligand stimulated, read-out: IC50 (μM) Test (b): Inhibition of autophosphorylation of Tie2 receptor tyrosine kinase

T2 sequence (Q02763 23-1124): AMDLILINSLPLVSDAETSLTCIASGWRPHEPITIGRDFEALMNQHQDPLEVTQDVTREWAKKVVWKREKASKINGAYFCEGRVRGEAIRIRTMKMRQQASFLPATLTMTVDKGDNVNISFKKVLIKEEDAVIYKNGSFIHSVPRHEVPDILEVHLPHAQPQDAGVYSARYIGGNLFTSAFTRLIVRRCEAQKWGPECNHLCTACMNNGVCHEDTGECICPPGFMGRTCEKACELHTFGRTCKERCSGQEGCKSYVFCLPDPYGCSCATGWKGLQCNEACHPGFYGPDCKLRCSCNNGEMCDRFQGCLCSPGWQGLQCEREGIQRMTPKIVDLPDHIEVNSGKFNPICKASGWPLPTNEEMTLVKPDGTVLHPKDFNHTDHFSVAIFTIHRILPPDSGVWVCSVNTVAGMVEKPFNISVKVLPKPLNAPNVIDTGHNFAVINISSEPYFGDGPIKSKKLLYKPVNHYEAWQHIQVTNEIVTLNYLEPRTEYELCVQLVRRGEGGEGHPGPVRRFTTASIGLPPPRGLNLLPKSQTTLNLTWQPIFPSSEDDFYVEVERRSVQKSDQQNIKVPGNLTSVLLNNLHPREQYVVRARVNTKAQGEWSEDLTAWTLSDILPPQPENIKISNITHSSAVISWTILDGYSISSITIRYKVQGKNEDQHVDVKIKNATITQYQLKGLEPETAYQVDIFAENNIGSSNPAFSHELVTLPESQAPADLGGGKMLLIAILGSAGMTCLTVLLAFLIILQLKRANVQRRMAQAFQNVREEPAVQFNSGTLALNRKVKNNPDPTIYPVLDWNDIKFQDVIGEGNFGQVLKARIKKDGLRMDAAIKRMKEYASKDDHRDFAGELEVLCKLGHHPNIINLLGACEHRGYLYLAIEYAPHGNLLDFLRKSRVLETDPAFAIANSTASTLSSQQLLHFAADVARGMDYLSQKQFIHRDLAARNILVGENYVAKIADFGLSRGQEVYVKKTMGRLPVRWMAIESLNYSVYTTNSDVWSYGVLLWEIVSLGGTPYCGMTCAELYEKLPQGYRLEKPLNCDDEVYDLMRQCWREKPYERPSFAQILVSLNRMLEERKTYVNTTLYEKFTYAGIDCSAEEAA
T1 sequence (Q02763 770-1124 limits assumed): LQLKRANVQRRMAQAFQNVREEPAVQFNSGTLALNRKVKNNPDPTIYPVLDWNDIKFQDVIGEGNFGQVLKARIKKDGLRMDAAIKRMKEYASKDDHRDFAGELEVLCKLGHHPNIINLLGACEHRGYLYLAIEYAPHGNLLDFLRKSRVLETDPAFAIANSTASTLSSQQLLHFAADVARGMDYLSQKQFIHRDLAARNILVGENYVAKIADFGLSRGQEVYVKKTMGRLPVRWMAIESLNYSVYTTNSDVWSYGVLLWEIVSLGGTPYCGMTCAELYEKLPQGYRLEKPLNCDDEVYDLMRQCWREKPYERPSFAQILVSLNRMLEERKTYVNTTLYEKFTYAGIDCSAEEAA

IC50 [1] [µM]	IC50 [2, 3] [µM]	Structure (SMILES)	IC50 [2] [µM]
7.5	0.78	Nc1ncnc(N)c1C#Cc1cccc(NS(=O)(=O)c2ccccc2Cl)c1 [Example 1, 2-chloro-N-{3-[(4,6-diaminopyrimidin-5-yl)ethynyl]phenyl}benzenesulfonamide]	–
0.4	0.34	Nc1ncnc(N)c1C#Cc1cccc(NS(=O)(=O)c2cc(F)ccc2F)c1 [Example 6, N-{3-[(4,6-diaminopyrimidin-5-yl)ethynyl]phenyl}-2,5-difluorobenzenesulfonamide]	–

Structure (SMILES)	IC50 [1] [µM]	IC50 [2, 3] [µM]	IC50 [2] [µM]
Nc1ncnc(N)c1C#Cc1cccc(NS(=O)(=O)c2cccc(Cl)c2Cl)c1 [Example 3, 2,3-dichloro-N-{3-[(4,6-diaminopyrimidin-5-yl)ethynyl]phenyl}benzenesulfonamide]	3.7	–	0.29
